From patent US10519197B1, “Peptide-based proteasome inhibitors for treating conditions mediated by senescent cells and for treating cancer” (UNITY BIOTECHNOLOGY, INC., priority 2017, dated 2019) come the findings set out here.

Common to all, as to assay type: in vivo, mouse
For data set [1], the system named is 3MR and INK-ATTAC mice exposed to cigarette smoke. Kind of data set: Cigarette smoke COPD model, oxygen saturation by pulse oximeter. As to conditions: after two months of cigarette smoke exposure, compared with untreated controls. As to the method:
As a model for chronic obstructive pulmonary disease (COPD), mice were exposed to cigarette smoke. The effect of a senolytic agent on the mice exposed to smoke is assessed by senescent cell clearance, lung function, and histopathology.
The mice used in this study include the 3MR strain, described in US 2017/0027139 A1 and in Demaria et al., Dev Cell. 2014 December 22; 31(6): 722-733. The 3MR mouse has a transgene encoding thymidine kinase that converts the prodrug ganciclovir (GCV) to a compound that is lethal to cells. The enzyme in the transgene is placed under control of the p16 promoter, which causes it to be specifically expressed in senescent cells. Treatment of the mice with GCV eliminates senescent cells.
Other mice used in this study include the INK-ATTAC strain, described in US 2015/0296755 A1 and in Baker et al., Nature 2011 Nov. 2; 479(7372):232-236. The INK-ATTAC mouse has a transgene encoding switchable caspase 8 under control of the p16 promoter. The caspase 8 can be activated by treating the mice with the switch compound AP20187, whereupon the caspase 8 directly induces apoptosis in senescent cells, eliminating them from the mouse.
To conduct the experiment, six-week-old 3MR (n=35) or INK-ATTAC (n=35) mice were chronically exposed to cigarette smoke generated from a Teague TE-10 system, an automatically-controlled cigarette smoking machine that produces a combination of side-stream and mainstream cigarette smoke in a chamber, which is transported to a collecting and mixing chamber where varying amounts of air is mixed with the smoke mixture. The COPD protocol was adapted from the COPD core facility at Johns Hopkins University (Rangasamy et al., 2004, J. Clin. Invest. 114:1248-1259; Yao et al., 2012, J. Clin. Invest. 122:2032-2045).
Mice received a total of 6 hours of cigarette smoke exposure per day, 5 days a week for 6 months. Each lighted cigarette (3R4F research cigarettes containing 10.9 mg of total particulate matter (TPM), 9.4 mg of tar, and 0.726 mg of nicotine, and 11.9 mg carbon monoxide per cigarette [University of Kentucky, Lexington, Ky.]) was puffed for 2 seconds and once every minute for a total of 8 puffs, with the flow rate of 1.05 L/min, to provide a standard puff of 35 cm^3. […] The smoke chamber atmosphere was monitored for total suspended particulates (80-120 mg/m3) and carbon monoxide (350 ppm). […]
After two months of cigarette smoke (CS) exposure, lung function was assessed by monitoring oxygen saturation using the MouseSTAT PhysioSuite™ pulse oximeter (Kent Scientific). […] Mice were monitored for 30 seconds and the average peripheral capillary oxygen saturation (SpO2) measurement over this duration was calculated.

The nature of data set [2]: Atherosclerosis model: body composition by MRI. As to conditions: 25 mg/kg intraperitoneally, timepoint 3 (week 12), mice fed the high fat diet. As to the method:
(§1) Two groups of LDLR−/− mice (10 weeks) are fed a high fat diet (HFD) (Harlan Teklad TD.88137) having 42% calories from fat, beginning at Week 0 and throughout the study. Two groups of LDLR−/− mice (10 weeks) are fed normal chow (−HFD). From weeks 0-2, one group of HFD mice and −HFD mice are treated with Nutlin-3A (25 mg/kg, intraperitoneally). One treatment cycle is 14 days treatment, 14 days off. Vehicle is administered to one group of HFD mice and one group of −HFD mice. At week 4 (timepoint 1), one group of mice are sacrificed and to assess presence of senescent cells in the plaques. For the some of the remaining mice, Nutlin-3A and vehicle administration is repeated from weeks 4-6. At week 8 (timepoint 2), the mice are sacrificed and to assess presence of senescent cells in the plaques. The remaining mice are treated with Nutlin-3A or vehicle from weeks 8-10. At week 12 (timepoint 3), the mice are sacrificed and to assess the level of plaque and the number of senescent cells in the plaques.
(§2) At the end of timepoint 3, LDLR−/− mice fed a HFD and treated with Nutlin-3A or vehicle (n=3 for all groups) were sacrificed, and aortas were dissected and stained with Sudan IV to detect the presence of lipid. Body composition of the mice was analyzed by MRI, and circulating blood cells were counted by Hemavet™.

Data set [3] has as its system C57BL/6J mice with surgery-induced osteoarthritis. Kind of data set: Osteoarthritis model (ACL surgery): weight bearing test. As to conditions: 5.8 μg per operated knee, intra-articular; 4 weeks post-surgery. As to the method:
(§3) The model was implemented as follows. C57BL/6J mice underwent surgery to cut the anterior cruciate ligament of one rear limb to induce osteoarthritis in the joint of that limb. During week 3 and week 4 post-surgery, the mice were treated with 5.8 μg of Nutlin-3A (n=7) per operated knee by intra-articular injection, q.o.d. for 2 weeks. At the end of 4 weeks post-surgery, joints of the mice were monitored for presence of senescent cells, assessed for function, monitored for markers of inflammation, and underwent histological assessment.
Function of the limbs was assessed 4 weeks post-surgery by a weight bearing test to determine which leg the mice favored. The mice were allowed to acclimate to the chamber on at least three occasions prior to taking measurements. Mice were maneuvered inside the chamber to stand with one hind paw on each scale. The weight that was placed on each hind limb was measured over a three second period. At least three separate measurements were made for each animal at each time point. The results were expressed as the percentage of the weight placed on the operated limb versus the contralateral unoperated limb.

Data set [4] is described as follows: Atherosclerosis model: circulating blood cell counts by Hemavet. As to conditions: 25 mg/kg intraperitoneally, timepoint 3 (week 12). As to the method:
as §1, §2

Data set [5] concerns LDLR-/- mice fed a HFD. Kind of data set: Atherosclerosis model (LDLR-/- mice, high fat diet): Sudan IV staining of aortic plaques. As to conditions: 25 mg/kg intraperitoneally, timepoint 3 (week 12). As to the method:
as §1, §2

Data set [6] deals with MMP3, MMP13, PAI1, p21, IGFBP2, IL-1A, and IL-1B. Briefly: Atherosclerosis model (LDLR-/- mice, high fat diet): RT-PCR of SASP factors and senescent cell markers in aortic arches. As to conditions: 25 mg/kg intraperitoneally, HFD. As to the method: as §1, with “At week 8 (timepoint 2), the mice are sacrificed and to assess presence of senescent cells in the plaques. The remaining mice are treated with Nutlin-3A or vehicle from weeks 8-10. At week 12 (timepoint 3), the mice are sacrificed and to assess the level of plaque and the number of senescent cells in the plaques.” left out
At the end of timepoint 1, LDLR−/− mice fed a HFD and treated with Nutlin-3A or vehicle were sacrificed (n=3, all groups), and the aortic arches were dissected for RT-PCR analysis of SASP factors and senescent cell markers. Values were normalized to GAPDH and expressed as fold-change versus age-matched, vehicle-treated LDLR−/− mice on a normal diet.
At the end of timepoint 2, LDLR−/− mice fed a HFD and treated with Nutlin-3A or vehicle (n=3 for all groups) were sacrificed, and aortic arches were dissected for RT-PCR analysis of SASP factors and senescent cell markers. Values were normalized to GAPDH and expressed as fold-change versus age-matched, vehicle-treated LDLR−/− mice on a normal diet.

Data set [7] relates to p16, IL-6, and MMP13. Briefly: Osteoarthritis model (ACL surgery): qRT-PCR of senescence and SASP markers in operated joints. As to conditions: 5.8 μg per operated knee, intra-articular, q.o.d. for 2 weeks; 4 weeks post-surgery; mRNA by qRT-PCR. As to the method: as §3
Two control groups of mice were included in the studies performed: one group comprising C57BL/6J or 3MR mice that had undergone a sham surgery (n=3) (i.e., surgical procedures followed except for cutting the ACL) and intra-articular injections of vehicle parallel to the GCV (ganciclovir) treated group; and one group comprising C57BL/6J or 3MR mice that had undergone an ACL surgery and received intra-articular injections of vehicle (n=5) parallel to the GCV-treated group. RNA from the operated joints of mice from the Nutlin-3A treated mice was analyzed for expression of SASP factors (mmp3, IL-6) and senescence markers (p16). qRT-PCR was performed to detect mRNA levels.
A general note: Quantitative PCR measures a nucleic acid by following its amplification.

The test system of data set [8] is C57BL/6J mice with surgery-induced osteoarthritis. Kind of data set: Osteoarthritis model (ACL surgery): histopathology of joint tissue. As to conditions: 5.8 μg per operated knee, intra-articular; 4 weeks post-surgery. As to the method: as §3

Consider `CC[C@H](C(=O)N1CCCC[C@H]1C(=O)O[C@H](CCc1ccc(OC)c(OC)c1)c1cccc(OCC(=O)NCC(CNC(=O)COc2cccc([C@@H](CCc3ccc(OC)c(OC)c3)OC(=O)[C@@H]3CCCCN3C(=O)[C@@H](CC)c3cc(OC)c(OC)c(OC)c3)c2)CN(C)C)c1)c1cc(OC)c(OC)c(OC)c1` [AP2018], for which the SpO2 levels entry in data set [1] is listed as “statistically significant increases”.

`CC1(C)CCC(c2ccc(Cl)cc2)=C(CN2CCN(c3ccc(C(=O)NS(=O)(=O)c4ccc(N[C@H](CCN5CCOCC5)CSc5ccccc5)c(S(=O)(=O)C(F)(F)F)c4)cc3)CC2)C1` [ABT-263]: the SpO2 levels entry in data set [1] is listed as “statistically significant increases”.

Consider `COc1ccc(C2=N[C@@H](c3ccc(Cl)cc3)[C@@H](c3ccc(Cl)cc3)N2C(=O)N2CCNC(=O)C2)c(OC(C)C)c1` [Nutlin-3A], for which the “mass and body fat composition” value in data set [2] is given as “decreased”. Also, the “weight bearing: favoring of the unoperated hind limb over the operated hind limb” value in data set [3] was “abrogated this effect”. Moreover, the “platelet and lymphocyte counts versus vehicle treated mice” value in data set [4] was “equivalent”. The SpO2 levels entry in data set [1] is given as “statistically significant increases”. The “reduction of the surface area covered by plaques in the descending aorta” value in data set [5] is “about 45%”. Further, the “expression of SASP factors and senescent cell markers MMP3, MMP13, PAI1, p21, IGFBP2, IL-1A, and IL-1B in aortic arch” value in data set [6] (after one treatment cycle (timepoint 1, week 4)) is reported as “reduced expression”. Besides, the “expression of SASP factors and senescent cell markers in aortic arch” value in data set [6] (multiple treatment cycles (timepoint 2, week 8)) is given as “reduced expression of most markers”. For the same molecule, the “expression of p16, IL-6, and MMP13 in the tissue” value in data set [7] is on record as “reduced the expression back to below the level of the controls”. Also, the “destruction of the proteoglycan layer (histopathology of joint tissue)” value in data set [8] is listed as “completely abrogated this effect”.

As for `Nc1nc(O)c2ncn(COC(CO)CO)c2n1` [ganciclovir], the SpO2 levels entry in data set [1] is reported as “statistically significant increases”.
